This experiment has as its system HeLa cells. Kind of experiment: Accumulation of SUMOylated proteins in HeLa cells (Western blot, 48 hours). It is filed as cell-based.

Turning to `Nc1ccc2ccccc2c1/N=N/c1ccc(/C=C/c2ccc(/N=N/c3c(N)ccc4ccccc34)cc2S(=O)(=O)O)c(S(=O)(=O)O)c1` [SPI-01], the “accumulation of SUMO-1 conjugates in cells” value is reported as “less significant effects”. Also, for the setting “increasing concentrations”, the “accumulation of SUMO-2/3 conjugates in cells” value is reported as “accumulation correlated with inhibitor concentration”.
